Data as given in patent EP4578861A1, “NOVEL TRICYCLIC HETEROCYCLIC CARBALDEHYDE COMPOUND AND PHARMACEUTICAL COMPOSITION, CONTAINING SAME, FOR IRE1ALPHA INHIBITION” (Hanmi Pharm. Co., Ltd., priority 2022, dated 2024).
pIC50: −log10 of the molar value.

The compounds below were run on spliced XBP1 (assay: Spliced XBP1 mRNA measurement test (RT-PCR, tunicamycin-induced ER stress in MCF-7 cells)). Settings: Homo sapiens, MCF7, compound pre-treated for 1 hour, then 2 µg/mL tunicamycin for 6 or 24 hours, spliced XBP1 corrected by total XBP1.
Format: cell-based
Procedure: With respect to these synthetic compounds, reverse transcription polymerase chain reaction (RT-PCR) experiments were conducted on MCF-7 cancer cells to confirm the effect thereof on the mRNA and protein amounts of spliced XBP1, which is the target of IRE endonuclease. A reverse transcription polymerase chain reaction is a test method in which RNA is extracted from cells, reverse transcriptase is used to make cDNA, and relative mRNA expression level is measured through a polymerase chain reaction.
Briefly, MCF-7 cells were seeded in a 12-well plate and cultured in an incubator including 5% CO2 for one day. On the next day, compounds, which were 10-fold serially diluted from 10,000 nM, were pre-treated for 1 hour, and then, treated with 2 µg/mL tunicamycin for 6 or 24 hours to induce endoplasmic reticulum stress, followed by cell lysis to obtain RNA. RNA was subjected to the procedure of RNeasy Kits (Qiagen, 74106), and 5 µg of RNA sample was dissolved in a sample including reverse transcriptase and dNTP, and reverse transcription reaction was performed with a thermal cycler. The amount of mRNA of each of spliced XBP1 and total XBP1 was measured by a polymerase chain reaction through real time PCR by mixing each cDNA sample with a PCR reaction mixture including a primer pair capable of binding specifically to each target and SYBR green dye. The expression level of spliced XBP1 was corrected by the total expression level of XBP1, and the relative expression levels of spliced XBP1 between samples were compared and analyzed.

| Structure (SMILES) | pIC50 |
| --- | --- |
| Cc1c(CC(=O)N2CCC(C)(C)C2)c(=O)oc2c(C=O)c(O)c3c(c12)CCCO3 [Example 12, 2-(2-(3,3-dimethylpyrrolidin-1-yl)-2-oxoethyl)-6-hydroxy-1-methyl-3-oxo-3,8,9,10-tetrahydropyrano[3,2-f]chromene-5-carbaldehyde] | 6.70 to 7.00 |
| Cc1c(CC(=O)N2CCCC2)c(=O)oc2c(C=O)c(O)c3c(c12)CCCO3 [Example 5, 6-hydroxy-1-methyl-3-oxo-2-(2-oxo-2-(pyrrolidin-1-yl)ethyl)-3,8,9,10-tetrahydropyrano[3,2-f]chromene-5-carbaldehyde] | > 7.00 |
| COC1CCN(C(=O)Cc2c(C)c3c4c(c(O)c(C=O)c3oc2=O)OCCC4)C1 (stereo not shown) [Example 14, 6-hydroxy-2-(2-(3-methoxypyrrolidin-1-yl)-2-oxoethyl)-1-methyl-3-oxo-3,8,9,10-tetrahydropyrano[3,2-f]chromene-5-carbaldehyde] | 6.70 to 7.00 |
| Cc1c(CC(=O)N2CC(F)C2)c(=O)oc2c(C=O)c(O)c3c(c12)CCCO3 [Example 19, 2-(2-(3-fluoroazetidin-1-yl)-2-oxoethyl)-6-hydroxy-1-methyl-3-oxo-3,8,9,10-tetrahydropyrano[3,2-f]chromene-5-carbaldehyde] | 6.70 to 7.00 |
| Cc1c(CC(=O)N2CCN(C)CC2)c(=O)oc2c(C=O)c(O)c3c(c12)CCCO3 [Example 6, 6-hydroxy-1-methyl-2-(2-(4-methylpiperazin-1-yl)-2-oxoethyl)-3-oxo-3,8,9,10-tetrahydropyrano[3,2-f]chromene-5-carbaldehyde] | > 7.00 |
| Cc1c(CC(=O)N2CCC2)c(=O)oc2c(C=O)c(O)c3c(c12)CCCO3 [Example 13, 2-(2-(azetidin-1-yl)-2-oxoethyl)-6-hydroxy-1-methyl-3-oxo-3,8,9,10-tetrahydropyrano[3,2-f]chromene-5-carbaldehyde] | 6.70 to 7.00 |
| Cc1c(CC(=O)N2CCC3(CC3)C2)c(=O)oc2c(C=O)c(O)c3c(c12)CCCO3 [Example 20, 6-hydroxy-1-methyl-3-oxo-2-(2-oxo-2-(5-azaspiro[2.4]heptan-5-yl)ethyl)-3,8,9,10-tetrahydropyrano[3,2-f]chromene-5-carbaldehyde] | 6.70 to 7.00 |
| Cc1c(CC(=O)N2CCC(C)C2)c(=O)oc2c(C=O)c(O)c3c(c12)CCCO3 (stereo not shown) [Example 11, 6-hydroxy-1-methyl-2-(2-(3-methylpyrrolidin-1-yl)-2-oxoethyl)-3-oxo-3,8,9,10-tetrahydropyrano[3,2-f]chromene-5-carbaldehyde] | > 7.00 |
| CCN(CC)C(=O)Cc1c(C)c2c3c(c(O)c(C=O)c2oc1=O)OCCC3 [Example 25, N,N-diethyl-2-(5-formyl-6-hydroxy-1-methyl-3-oxo-3,8,9,10-tetrahydropyrano[3,2-f]chromen-2-yl)acetamide] | > 7.00 |
| Cc1c(CC(N)=O)c(=O)oc2c(C=O)c(O)c3c(c12)CCCO3 [Example 22, 2-(5-formyl-6-hydroxy-1-methyl-3-oxo-3,8,9,10-tetrahydropyrano[3,2-f]chromen-2-yl)acetamide] | ≤ 6.70 |
| Cc1c(CC(=O)N2CCCCC2)c(=O)oc2c(C=O)c(O)c3c(c12)CCCO3 [Example 21, 6-hydroxy-1-methyl-3-oxo-2-(2-oxo-2-(piperidin-1-yl)ethyl)-3,8,9,10-tetrahydropyrano[3,2-f]chromene-5-carbaldehyde] | ≤ 6.70 |
| COCCNC(=O)Cc1c(C)c2c3c(c(O)c(C=O)c2oc1=O)OCCC3 [Example 24, 2-(5-formyl-6-hydroxy-1-methyl-3-oxo-3,8,9,10-tetrahydropyrano[3,2-f]chromen-2-yl)-N-(2-methoxyethyl)acetamide] | > 7.00 |
| Cc1c(CC(=O)N2CC3CC2CO3)c(=O)oc2c(C=O)c(O)c3c(c12)CCCO3 (stereo not shown) [Example 27, 2-(2-(2-oxa-5-azabicyclo[2.2.1]heptan-5-yl)-2-oxoethyl)-6-hydroxy-1-methyl-3-oxo-3,8,9,10-tetrahydropyrano[3,2-f]chromene-5-carbaldehyde] | > 7.00 |
| Cc1c(CC(=O)N2CCSCC2)c(=O)oc2c(C=O)c(O)c3c(c12)CCCO3 [Example 28, 6-hydroxy-1-methyl-3-oxo-2-(2-oxo-2-thiomorpholinoethyl)-3,8,9,10-tetrahydropyrano[3,2-f]chromene-5-carbaldehyde] | 6.70 to 7.00 |
| CCc1c(CC(=O)N2CCCC2)c(=O)oc2c(C=O)c(O)c3c(c12)CCCO3 [Example 18, 1-ethyl-6-hydroxy-3-oxo-2-(2-oxo-2-(pyrrolidin-1-yl)ethyl)-3,8,9,10-tetrahydropyrano[3,2-f]chromene-5-carbaldehyde] | ≤ 6.70 |
| Cc1c(CC(=O)N2CCOCC2)c(=O)oc2c(C=O)c(O)c3c(c12)OCO3 [Example 2, 4-hydroxy-9-methyl-8-(2-morpholino-2-oxoethyl)-7-oxo-7H-[1,3]dioxolo[4,5-f]chromene-5-carbaldehyde] | 6.70 to 7.00 |
| Cc1c(CC(=O)N2CCN(C(C)C)CC2)c(=O)oc2c(C=O)c(O)c3c(c12)CCCO3 [Example 7, 6-hydroxy-2-(2-(4-isopropylpiperazin-1-yl)-2-oxoethyl)-1-methyl-3-oxo-3,8,9,10-tetrahydropyrano[3,2-f]chromene-5-carbaldehyde] | 6.70 to 7.00 |
| Cc1c(CC(=O)N2CCOCC2)c(=O)oc2c(C=O)c(O)c3c(c12)CCO3 [Example 1, 4-hydroxy-9-methyl-8-(2-morpholino-2-oxoethyl)-7-oxo-1,7-dihydro-2H-furo[3,2-f]chromene-5-carbaldehyde] | > 7.00 |
| COC1CN(C(=O)Cc2c(C)c3c4c(c(O)c(C=O)c3oc2=O)OCCC4)C1 [Example 15, 6-hydroxy-2-(2-(3-methoxyazetidin-1-yl)-2-oxoethyl)-1-methyl-3-oxo-3,8,9,10-tetrahydropyrano[3,2-f]chromene-5-carbaldehyde] | 6.70 to 7.00 |
| Cc1c(CC(=O)N2CCC(F)C2)c(=O)oc2c(C=O)c(O)c3c(c12)CCCO3 (stereo not shown) [Example 16, 2-(2-(3-fluoropyrrolidin-1-yl)-2-oxoethyl)-6-hydroxy-1-methyl-3-oxo-3,8,9,10-tetrahydropyrano[3,2-f]chromene-5-carbaldehyde] | ≤ 6.70 |
| Cc1c(CC(=O)N2CCSC2)c(=O)oc2c(C=O)c(O)c3c(c12)CCCO3 [Example 30, 6-hydroxy-1-methyl-3-oxo-2-(2-oxo-2-(thiazolidin-3-yl)ethyl)-3,8,9,10-tetrahydropyrano[3,2-f]chromene-5-carbaldehyde] | > 7.00 |
| CCNC(=O)Cc1c(C)c2c3c(c(O)c(C=O)c2oc1=O)OCC3 [Example 8, N-ethyl-2-(5-formyl-4-hydroxy-9-methyl-7-oxo-1,7-dihydro-2H-furo[3,2-f]chromen-8-yl)acetamide] | > 7.00 |
| CC(C)c1c(CC(=O)N2CCCC2)c(=O)oc2c(C=O)c(O)c3c(c12)CCCO3 [Example 23, 6-hydroxy-1-isopropyl-3-oxo-2-(2-oxo-2-(pyrrolidin-1-yl)ethyl)-3,8,9,10-tetrahydropyrano[3,2-f]chromene-5-carbaldehyde] | 6.70 to 7.00 |
| CC(=O)N1CCN(C(=O)Cc2c(C)c3c4c(c(O)c(C=O)c3oc2=O)OCCC4)CC1 [Example 26, 2-(2-(4-acetylpiperazin-1-yl)-2-oxoethyl)-6-hydroxy-1-methyl-3-oxo-3,8,9,10-tetrahydropyrano[3,2-f]chromene-5-carbaldehyde] | ≤ 6.70 |

Same assay, conditions: compound pre-treated for 1 hour, then 2 µg/mL tunicamycin for 6 or 24 hours, spliced XBP1 corrected by total XBP1

| Structure (SMILES) | pIC50 |
| --- | --- |
| COc1cc2c(C)c(CC(=O)N3CCOCC3)c(=O)oc2c(C=O)c1O [MKC8866, reference compound] | > 7.00 |
